Drawing on patent publication US7799947B2, “In vivo imaging compounds” (Hammersmith Imanet Limited, priority 2005, dated 2010), this text covers Ki for 13 compounds.

A value given as a limit tells only on which side of the number the result lay.

For orientation: Ki means the dissociation constant of the complex between target and ligand, obtained from inhibition or displacement. Low values mean higher affinity, high ones lower affinity.

T1 sequence (Q00960 27-1482, other chains not shown): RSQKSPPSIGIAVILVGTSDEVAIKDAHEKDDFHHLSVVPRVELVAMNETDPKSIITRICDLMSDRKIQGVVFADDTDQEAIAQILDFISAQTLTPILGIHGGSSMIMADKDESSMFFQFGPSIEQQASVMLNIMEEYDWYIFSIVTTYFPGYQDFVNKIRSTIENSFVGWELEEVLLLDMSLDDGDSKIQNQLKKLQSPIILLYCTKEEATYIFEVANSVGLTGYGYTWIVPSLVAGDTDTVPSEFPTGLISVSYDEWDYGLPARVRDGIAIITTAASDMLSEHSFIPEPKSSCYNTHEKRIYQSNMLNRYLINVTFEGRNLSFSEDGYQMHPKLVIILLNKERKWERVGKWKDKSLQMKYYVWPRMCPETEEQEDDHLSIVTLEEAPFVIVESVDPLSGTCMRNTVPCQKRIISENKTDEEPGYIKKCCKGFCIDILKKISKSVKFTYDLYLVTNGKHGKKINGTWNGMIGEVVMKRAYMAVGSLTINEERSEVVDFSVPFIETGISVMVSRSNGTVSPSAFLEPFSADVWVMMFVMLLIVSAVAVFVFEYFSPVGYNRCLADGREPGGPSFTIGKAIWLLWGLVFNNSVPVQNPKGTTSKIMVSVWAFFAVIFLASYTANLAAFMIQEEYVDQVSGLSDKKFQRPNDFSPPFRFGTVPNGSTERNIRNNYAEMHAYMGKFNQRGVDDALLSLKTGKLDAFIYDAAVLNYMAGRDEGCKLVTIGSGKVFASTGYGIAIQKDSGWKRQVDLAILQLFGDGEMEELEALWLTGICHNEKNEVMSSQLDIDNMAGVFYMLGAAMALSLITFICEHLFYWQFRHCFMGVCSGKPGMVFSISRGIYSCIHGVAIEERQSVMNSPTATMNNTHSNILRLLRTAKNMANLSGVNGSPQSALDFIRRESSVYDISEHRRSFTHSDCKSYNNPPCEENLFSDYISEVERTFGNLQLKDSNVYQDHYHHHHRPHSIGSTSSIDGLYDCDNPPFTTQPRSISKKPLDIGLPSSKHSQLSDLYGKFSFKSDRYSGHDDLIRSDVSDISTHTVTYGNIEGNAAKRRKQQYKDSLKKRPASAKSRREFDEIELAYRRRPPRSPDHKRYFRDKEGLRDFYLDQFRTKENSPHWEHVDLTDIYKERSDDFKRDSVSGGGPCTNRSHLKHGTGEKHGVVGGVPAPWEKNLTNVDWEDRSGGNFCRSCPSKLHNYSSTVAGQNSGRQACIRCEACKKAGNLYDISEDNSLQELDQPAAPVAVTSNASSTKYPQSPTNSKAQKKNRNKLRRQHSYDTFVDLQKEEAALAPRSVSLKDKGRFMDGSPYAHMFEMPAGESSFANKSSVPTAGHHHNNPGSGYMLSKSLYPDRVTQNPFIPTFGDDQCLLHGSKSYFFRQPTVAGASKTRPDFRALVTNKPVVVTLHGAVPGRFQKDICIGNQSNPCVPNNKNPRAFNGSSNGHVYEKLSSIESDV

The experiment concerns the target T1, NR2B receptor (Rattus norvegicus, UniProt P35439+Q00960).
T1 construct: NMDA, Polyamine source: Wistar Rat cerebral cortex; from tissue; host or cells: Wistar rat cerebral cortex
As to the kind of experiment: In vitro affinity measurement, [^3H]Ifenprodil radioligand binding (NMDA, Polyamine). Conditions: Wistar Rat cerebral cortex; ligand [^3H]Ifenprodil; 2 hours at 4° C.; six concentrations tested in duplicate.
The compound `COc1ccccc1CNC(=N)c1ccc(I)cc1` [EA12, N-(2-methoxybenzyl)-4-iodophenyl amidine] displayed a Ki of less than 11 nM.
Next, `N=C(NCc1cc(Cl)cc(OCCF)c1)c1ccc(OC(F)(F)F)cc1` [EA15, N-(3-(2-fluoroethoxy)-5-chlorobenzyl)-4-trifluoromethoxyphenyl amidine]: less than 11 nM.
The figure for `COc1ccc(OC)c(CNC(=N)c2ccc(OC(F)(F)F)cc2)c1` [EA5, N-(2,5-dimethoxybenzyl)-4-trifluoromethoxyphenyl amidine] is less than 11 nM; for `N=C(NCc1cc(Br)ccc1OCCF)c1ccc(OC(F)(F)F)cc1` [EA16] it is less than 11 nM.
`COc1ccc(Br)cc1CNC(=N)c1ccc(OC(F)(F)F)cc1` [EA10, N-(2-methoxy-5-bromobenzyl)-4-trifluoromethoxyphenyl amidine] registered a Ki of less than 2 nM.
The figure for `COc1cc(CNC(=N)c2ccc(OC(F)(F)F)cc2)c(OC)cc1Cl` [EA8, N-(2,5-dimethoxy-4-chlorobenzyl)-4-trifluoromethoxyphenyl amidine] is less than 11 nM.
`COc1ccc(Cl)cc1CNC(=N)c1ccc(OC(F)(F)F)cc1` [EA9, N-(2-methoxy-5-chlorobenzyl)-4-trifluoromethoxyphenyl amidine]: the Ki was less than 2 nM.
In turn, `COc1cccc(CNC(=N)c2ccc(OC(F)(F)F)cc2)c1OC` [EA7, N-(2,3-dimethoxybenzyl)-4-trifluoromethoxyphenyl amidine] had an inhibition constant (Ki) of more than 100 nM.
Regarding `COc1cc(Cl)cc(CNC(=N)c2ccc(OC(F)(F)F)cc2)c1` [EA11, N-(3-methoxy-5-chlorobenzyl)-4-trifluoromethoxyphenyl amidine], the Ki is less than 11 nM.
`N=C(NCc1cc(Cl)cc(Cl)c1)c1ccc(I)cc1` [EA14, N-(3,5-dichlorobenzyl)-4-iodophenyl amidine] returned an inhibition constant (Ki) of less than 2 nM.
The compound `COc1cc(CNC(=N)c2ccc(OC(F)(F)F)cc2)cc(OC)c1` [EA4, N-(3,5-dimethoxybenzyl)-4-trifluoromethoxyphenyl amidine] came in with a Ki of less than 11 nM.
`COc1cccc(OC)c1CNC(=N)c1ccc(OC(F)(F)F)cc1` [EA6, N-(2,6-dimethoxybenzyl)-4-trifluoromethoxyphenyl amidine] displayed a Ki of less than 2 nM.
Consider `N=C(NCc1cccc(Cl)c1)c1ccc(I)cc1` [EA13, N-(3-chlorobenzyl)-4-iodophenyl amidine], for which the inhibition constant (Ki) is less than 11 nM.
